# Numbers after ± are expanded uncertainties.
# Assays:
# [1] = molar enthalpy of vaporization or sublimation; details: 298.15 K, Drop Microcalorimetry
# [2] = Molar enthalpy of transition or fusion; details: DSC
# [3] = DTA
SMILES,molar enthalpy ([1]; Crystal) [kcal/mol],Molar enthalpy of transition or fusion ([2]; Crystal) [kcal/mol],Normal melting temperature ([3]; Crystal) [°C],molar enthalpy ([1]; Crystal 2) [kcal/mol],Molar enthalpy of transition or fusion ([2]; Crystal 1) [kcal/mol],Molar enthalpy of transition or fusion ([2]; Crystal 2) [kcal/mol],Normal melting temperature ([3]; Crystal 1) [°C],Triple point temperature ([3]; Crystal 2) [K]
O=C1CCCc2c(O)cccc21 [5-hydroxy-1-tetralone],28.3 ± 0.717,8.05 ± 0.198,206.91 ± 0.39,,,,,
O=C1CCCc2cc(O)ccc21 [6-hydroxy-1-tetralone],,,,28.1 ± 0.669,4.54 ± 0.17,3.11 ± 0.598,152.76 ± 0.45,387.46 ± 0.65

# — the NIST ThermoML archive (doi:10.1021/je8004408)
